Results taken from patent US11007271B2, “Anticancer drug conjugates” (Ariel Scientific Innovations Ltd., priority 2016, dated 2021).
Entries after “also recorded” stand apart in the source; their conditions may differ.

How the values were obtained:
[1] = system: PC-3 (human prostate cancer); experiment: XTT cell growth assay, PC-3; assay type: cell-based; details: PC-3 cells; 5 to 25 μM; 24 and 48 hours incubation
Description: (§1) The tumors cell lines used in this study included PC-3 (human prostate cancer), WM-266-4 cell (human metastatic melanoma), MDA-MB 231 (human breast cancer) and A172 (glioblastoma). […] The benign fibroblasts were tolerable to this conjugate, accentuating its potential as anticancer candidate. At the end of the culture period, cell growth was estimated by XTT assay. After 4 hours incubation of the cells with the XTT reagent, optical density (OD) of the reduced XTT product was then measured at 480 and 680 nm. Percentage of growth inhibition by a test compound was calculated by comparison of the treated culture versus a control culture (free of any compound). The result shown for each concentration point represents the mean+/−standard error calculated from 3 different experiments. In each experiment the compounds were tested in triplicates.

[2] = Body weight monitoring, Experiment 2; assay type: in vivo, mice; details: 5 mg group; IP 3 times a week
Description: (§2) In another experiment (Experiment 2), 13 human melanoma model mice were treated 3 times a week by IP injection with of Chimera 358 followed by 2 days of observation according to the following groups: 3 control mice received saline, 5 mice with 5 mg and 5 mice with 10 mg. The treatment was started two weeks after grafting, when tumor development has started.
FIG. 7 presents the results of the body weight monitoring of 13 mice that undergone the treatment described in Experiment 2.

A172 (glioblastoma) = experiment: XTT cell growth assay, A172; assay type: cell-based; details: A172 cells; 5 to 25 μM
Description: as §1

[3] = system: WM-266.4 human melanoma xenograft; experiment: Experiment 2: human melanoma model mice, IP injection 3 times a week; assay type: in vivo; details: for WM-266.4 cell proliferation (tumor size) in vivo: IP 3 times a week
Description: as §2

[4] = Body weight monitoring, Experiment 1; assay type: in vivo, mice; details: 25 mg group; IP daily for 7 days
Description: (§3) In one experiment (Experiment 1), 14 human melanoma model mice (immune-deficient xenograft) were treated daily for 7 days by IP injection with of Chimera 358 followed by 2 days of observation according to the following groups: 4 control mice treated with saline, 5 mice treated with 25 mg and 5 mice treated with 10 mg.
FIG. 6 presents the results of the body weight monitoring of 14 mice that undergone the treatment described in Experiment 1.

[5] = system: MDA-MB 231 (human breast cancer); experiment: XTT cell growth assay, MDA-MB 231; assay type: cell-based; details: MDA-MB 231 cells; 5 to 25 μM; 24 hours incubation (FIGS. 1E, 1F)
Description: as §1

[6] = system: WM-266.4 human melanoma xenograft; experiment: Experiment 1: human melanoma model mice, daily IP injection for 7 days; assay type: in vivo
Description: as §3

benign fibroblasts = experiment: In vitro cytotoxicity on benign fibroblasts; assay type: cell-based
Description: as §1

[7] = system: primary fibroblast (FB) cells; experiment: Annexin V-FITC/PI flow cytometry detection of apoptotic/necrotic stages, fibroblasts; assay type: cell-based; details: 10 μM, compared to cancer cells
Description: Detection of apoptotic/necrotic stages of tumor cells was examined by Annexin V-FITC/PI apoptosis detection kit (MEBCYTO). Viable cells are negative for staining of either Annexin V or PI. Early apoptotic stage indicated with positive Annexin V and negative PI, whereas late-apoptotic and necrotic stages characterized by high PI signal.
FIGS. 3A-C present flow cytometry analysis of fibroblast cells treated with 10 μM of chimera 358 for 2 hours (FIG. 3A), 4 hours (FIG. 3B) and 8 hours (FIG. 3C), showing detection of apoptotic/necrotic stages of the cells.

[8] = system: WM-266-4 cell (human metastatic melanoma); experiment: XTT cell growth assay, WM-266-4; assay type: cell-based; details: WM-266-4 cells; 5 to 25 μM; 24 and 48 hours incubation
Description: as §1

SMILES: CN(C)CCN1C(=O)c2cccc3cc(NC(=O)CCCc4ccc(N(CCCl)CCCl)cc4)cc(c23)C1=O [Chimera 358, 4-(4-(bis(2-chloroethyl)amino)phenyl)-N-(2-(2-(dimethylamino)ethyl)-1,3-dioxo-2,3-dihydro-1H-benzo[de]isoquinolin-5-yl)butanamide]
- inhibition of cancer cell growth / cell viability (XTT) [1]: remarkable inhibition of cancer cell growth; also recorded: notable cell toxicity
- body weight [2]: maintained their body weight
- inhibition of cancer cell growth (XTT) (A172 (glioblastoma)): remarkable inhibition of cancer cell growth
- WM-266.4 cell proliferation (tumor size) in vivo ([3]; 5 mg group): kept growing
- survival ([3]; 10 mg group (5 mice), IP three times weekly): one mouse
- WM-266.4 cell proliferation (tumor size) in vivo ([3]; 10 mg group): grew to a much lesser extent
- body weight [4]: loss of body weight
- inhibition of cancer cell growth / cell viability (XTT) [5]: remarkable inhibition of cancer cell growth; also recorded: notable cell toxicity
- survival ([6]; 10 mg group (5 mice), IP daily for 7 days): one mouse
- WM-266.4 cell proliferation (tumor size) in vivo ([6]; 10 mg group, after four weeks of the treatment): notable decrease in tumor size
- WM-266.4 cell proliferation (tumor size) in vivo ([6]; mice receiving the treatment (25 mg, 10 mg) versus saline control): grew to a much lesser extent
- effect on benign fibroblasts (benign fibroblasts): tolerable
- cell death (apoptotic/necrotic stages) [7]: moderate
- inhibition of cancer cell growth / cell viability (XTT) [8]: remarkable inhibition of cancer cell growth; also recorded: notable cell toxicity
